Data reported in patent US8592374B2, “Neurotrophic peptides” (Research Foundation for Mental Hygiene, Inc., priority 2007, dated 2013).

Key:
[1] = tested on: neural progenitor cells of the dentate gyrus; test: Stereological counts of BrdU-IR cells in subregions of the hippocampus, 30-day pellets; assay type: in vivo, mice
Experimental: All in vivo studies for characterization of peptides (stereology and behavioral analysis) were performed on 8-10-month-old female retired breeders of C57Bl6 background. The animals were acclimatized for at least 3 weeks to exclude occasional pregnant mice from the studies. Mice were group-housed (3 animals per cage) with a 12:12 light:dark cycle and with free access to food and water. All procedures were conducted in accordance with approved protocols from our institutional Animal Welfare Committee.
(§1) To study neurogenesis, mice received subcutaneous implants of extended release depot pellets containing either CNTF peptides 6a or 6c for 30 days of continuous dosing (Innovative Research of America, Sarasota, Fla.). For control groups, the pellets consisted of the carrier biopolymer only. For implantation, the mice were anesthetized with 2.5% Avertin (0.38 ml for a 25 g animal). Under sterile conditions, the pellets were then subcutaneously implanted along the anterolateral aspect of the right shoulder with a precision trochar (Innovative Research of America). The animals were then transferred to the animal colony after recovery from anesthesia. There were no complications associated with the implantation and treatment. BrdU was given as two daily i.p. injections (100 mg/kg/dose) for five days starting on day 2 of peptide treatment. Neurogenesis was assessed in the dentate gyrus (DG) by counting the number of BrdU-immunoreactive (BrdU-IR), BrdU-DCX-IR and BrdU-NeuN-IR cells in various layers of the DG. Employing principles of unbiased stereology, the optical fractionator method was used to estimate cell counts for the DG.
At the end of treatment, all animals were anesthetized with an overdose of sodium pentobarbital and transcardially perfused with 0.1 M PBS. After perfusion, the brains were removed from the skull, the left hemisphere was immediately frozen for future biochemical analysis and the right hemisphere was fixed in 4% paraformaldehyde in 0.1 M PBS for at least 24 hours at room temperature. Tissues were then stored in 30% sucrose solutions at 4° C. until sectioning. The brains were sectioned sagittaly on a freezing sliding microtome at […] through the entire hippocampus and the sections were stored in glycol anti-freeze solution (Ethylene glycol, glycerol and 0.1 M PBS in 3:3:4 ratio) at −20° C. till further processing.
(§2) Immunohistochemistry was performed as described elsewhere (Kuhn et al., J. Neurosci 17 (15) (1997): 5820-5829). Briefly, every 5th brain section was chosen for quantification of cell number and every 10th section was chosen for staining intensity scanning. Immunohistochemistry was performed on free floating sections. For BrdU immunohistochemistry, epitope retrieval and staining were performed as previously described (Kuhn et al., J. Neurosci 17 (15) (1997): 5820-5829).
Neurogenesis was assessed in the DG by counting the number of BrdU-immunoreactive (BrdU-IR), BrdU-DCX-IR and BrdU-NeuN-IR cells in various layers of the DG. The granule cell layer (GCL) was subdivided into an inner and outer half (iGCL and oGCL). The iGCL consisted of the subgranular zone (SGZ, defined as a 2-3 nuclei thick layer bordering the GCL) and the inner half of the GCL adjacent to the Hilus (Hil); the outer GCL (oGCL) was defined as the half of the GCL adjacent to the Molecular layer (Mol). A cell in the middle of the GCL was considered part of the iGCL and a cell bordering the GCL in the Mol was included in oGCL counts. […] Hil included the superficial polymorphic layer.
All sections were collected using the random uniform sampling scheme. For BrdU-IR cells, counting was performed on every 5th section using 40× oil objective of a Nikon 90i fluorescent microscope equipped with Nikon C1 three laser confocal system and a Nikon DS U1 digital camera. Employing principles of unbiased stereology, the optical fractionator method was used to estimate cell counts for the DG (West et al., Anat Rec 231 (1991): 482-497). […]

[2] = tested on: granule cell layer of the dentate gyrus; test: Stereological counts of DCX-, BrdU-NeuN- and c-Fos-NeuN-IR cells in the granule cell layer; assay type: in vivo, mice
Experimental: as §1
The following primary antibodies were used for immunohistochemistry: anti-BrdU (1:400; Accurate) a rat monoclonal raised against BrdU; anti-DCX (1:200; Santa Cruz Biotechnology Inc.), a goat polyclonal antibody raised against an 18-amino acid peptide representing residues […] of human doublecortin; anti-NeuN (1:500; Chemicon), a mouse monoclonal antibody raised against purified cell nuclei from mouse brain; Anti-c-Fos (Ab-5) (1:500; Calbiochem), a rabbit polyclonal antibody raised against a synthetic peptide corresponding to amino-acids 4-17 of human c-Fos; SMI52 (1:1000; Sternberger Monoclonals), a mouse monoclonal antibody specific for the mature neuronal marker MAP2a,b; anti-synaptophysin, SYN (1:200; Chemicon), a mouse monoclonal antibody raised against vesicular fraction of bovine brain. The following secondary antibodies were used: Alexa 488-conjugated goat anti-mouse IgG antibody and Alexa 594-conjugated goat anti-rabbit or anti-rat IgG antibody (Molecular Probes); biotinylated anti-rat IgG antibody and Cy5-conjugated goat anti-mouse antibody (Jackson ImmunoResearch).
as §2
For BrdU-DCX-, BrdU-NeuN-, and c-Fos-NeuN-IR cells, only GCL (consisting of iGCL and oGLC described above) was counted using 100× oil objective in every 10th section. To ensure objectivity, z-stacks were collected for each double IR cell and analyzed later by generating maximum projection and 3D constructs.

normal adult mice = test: Morris Water Maze task, CNTF 6a / CNTF 6c pellets 30 days; assay type: in vivo
Experimental: For behavioral studies, performance on the Morris Water Maze task was assessed in three groups of 10 mice each (placebo, CNTF6a and CNTF6c) which received peptide treatment for 30 days. To avoid daily stress due to injections, all animals undergoing behavioral studies received subcutaneous implants of CNTF 6a, CNTF 6c or placebo pellets as described above.
All animals for behavioral testing were coded such that the experimentator was blind to the assignment of the animals to specific treatment groups. The Morris Water Maze procedure was performed using a 110 cm diameter circular tank. Before training, the mice were handled gently for 2-3 min/day during 3 days to minimize non-specific stress. Acquisition was started with the submerged (invisible) escape platform in the North-East quadrant and each animal was given 60 sec to find the submerged escape platform. […] Five such acquisition trials were given on each day, for four consecutive days. A test for retention, or probe trial, was given 24 hours later. During the probe trial the mouse was allowed to swim in the tank without the escape platform for 60 seconds. This was followed by second and third probe trials 15 and 30 days from the first probe trial. Each probe trial was immediately followed by a “retraining session” consisting of 5 trials/animal to consolidate learned behavior.
The measures of learning were the time and distance swum to reach the escape platform. For retention during the probe trial, the tank was divided into four imaginary quadrants and a small zone where the escape platform had been (virtual platform). The measures of retention were the percent of time spent and the percent of distance swum in each quadrant, and the number of entries into the platform zone.
Mouse behavior in the Morris Water Maze was monitored by a Samsung Digital Camera (SDC 4304) mounted to the ceiling and tracked and timed by a SMART (Pan Lab/San Diego Instruments) version 2.0.14 software.
Since normal adult mice were used as experimental animals, it was crucial not to miss any effect on memory acquisition and learning that the 30-day peptide treatment might have had. Therefore, a partial training paradigm was used to evaluate learning and memory in the Morris Water Maze. Treated mice were trained on the Morris Water Maze for a total of 20 sessions spanning 4 days after which they were subjected to the first probe trial (P1). Two additional probe trials (P2 and P3) were administered 15 and 30 days after P1. […] Learning was evaluated in terms of latency and distance traveled to reach the invisible escape platform. Retention was measured on probe trials by the percent of time and travel distance in the target quadrant, and the number of crossings of the virtual platform.

[3] = tested on: dentate gyrus progenitor cells; test: Cell proliferation (BrdU labeled cells) in the dentate gyrus of mice given CNTF peptides i.p.; assay type: in vivo; conditions: for proliferation of dentate gyrus progenitor cells: BrdU labeling, 8-10 month old female C57BL6 mice
Excerpt: (§3) All experiments involving mice were done on 8-10 month old female retired breeders of C57BL6 background. A total of 33 mice were divided into 10 groups of 3 animals each (except control group which had 6 mice). The groups are described in Table 1. Details of CNTF peptides are described in Table 2.
(§4) The animals were kept in groups of 3 per cage. The mice were given daily intraperitoneal injections of four CNTF peptides either separately or in a mixture for 2 weeks as described in Table 1. From day 2, BrdU (Bromodeoxyuridine; 150 mg/Kg) was added to the injections. The animals were sacrificed 24 hours after the last injection. Briefly, the animals were perfused transcardially with PBS and their brains taken out and dissected into halves. One hemisphere from each animal was frozen for biochemical analysis and the other was fixed in 4% paraformaldehyde for 48 hours followed by equilibration in 30% sucrose in PBS overnight. These were then processed for immunohistochemistry.
Fixed tissues were cut into 40 μm sections on a freezing sliding microtome. One in 5 sections per brain was processed for BrdU staining and visualized by immunoflorecence. Cell counting was done on these sections to determine the number of BrdU labeled cells (representing newly born cells) in the dentate gyrus of the hippocampus. The area of counting was limited to the granule cell layer and the subgranular zone (a two-nucleus thick layer adjacent to the granule cell layer). For counting purposes, the dentate gyrus was divided into two areas, the outer granule cell layer (oGCL) consisting of one half of the granule cell layer, and the subgranular zone (SGZ) of the inner half (towards the hilus) of the granule cell layer plus a two-nucleus thick layer adjacent to the outer border of the hilus. Cell counting was done on confocal images of the sections according to the optical dissector principle. Volumetric analysis was carried out with the help of Image Pro software.
as §4, with “table” for “Table”, “injection (FIG. 1).” for “injection.”
(§5) Fixed tissues were cut into 40 μm sections on a freezing sliding microtome. One in 5 sections per brain was processed for BrdU staining and visualized by immunoflorecence. Cell counting was done on these sections to determine the number of BrdU labeled cells (representing newly born cells) in the dentate gyrus of the hippocampus. The area of counting was limited to the granule cell layer and the subgranular zone (a two-nucleus thick layer adjacent to the granule cell layer). For counting purposes, the dentate gyrus was divided into two areas, the outer granule cell layer (oGCL) consisting of out half of the granule cell layer, and the […] comprising of the inner half (towards the hilus) of the granule cell layer plus a two-nucleus thick layer adjacent to the outer border of the hilus. Cell counting was done on confocal images of the sections according to the optical dissector principle. Volumetric analysis was carried out with the help of Image Pro software.

[4] = tested on: dentate gyrus progenitors; test: DCX expression in BrdU labeled progenitors in the dentate gyrus; assay type: in vivo, mice; conditions: 14 day treatment group
Excerpt: as §3
as §4, with “table” for “Table”, “injection (FIG. 1).” for “injection.”
as §5

[5] = 30-day treated mice (n = 5/group)
[6] = daily i.p. injections for 2 weeks
[7] = both concentrations (0.5 and 5 nmoles/animal)

For “V-G-D-G (VGDG; neurotrophic and/or neurogenic peptide) [CNTF 6a]”, the “BrdU-IR cell numbers in the four sub-regions of the DG” value ([1]; 30-day pellets) was “no effect”, the “increase of BrdU-IR cell counts in the GCL compared to placebo” value ([1]; 30-day pellets, 50 nmol/peptide/animal/day) was “not significant effect” and the “Stereological counts (±SEM) of BrdU-IR cells, GCL” value [1, 5] was 493 ± 28. For the same substance, the “Stereological counts (±SEM) of BrdU-IR cells, Hil” value [1, 5] was 126 ± 8, the “Stereological counts (±SEM) of BrdU-IR cells, Mol” value [1, 5] was 538 ± 99 and the “Stereological counts (±SEM) of BrdU-IR cells, iGCL” value [1, 5] was 382 ± 15. For the same substance, the “Stereological counts (±SEM) of BrdU-IR cells, oGCL” value [1, 5] was 110 ± 13, the “Stereological counts (±SEM) of cells expressing DCX in the granule cell layer” value [2, 5] was 360 ± 33 and the “Stereological counts (±SEM), NeuN-BrdU/BrdU in the granule cell layer” value [2, 5] was 19 ± 2. The “Stereological counts (±SEM) of c-fos-NeuN cells in the granule cell layer” value ([2]; 30-day treated mice (n = 5/group), basal activity) was 214 ± 27, the “increase in BrdU-NeuN-IR cells in the GCL compared with placebo” value ([2]; 30-day treatment) was “no effect” and the “increase of DCX-IR cells in the GCL compared to placebo” value ([2]; 30-day treatment) was “did not show any significant difference”. The “learning in the spatial reference memory task (swim latencies)” value (normal adult mice; 30-day pellets, 20 training sessions over 4 days) was “no effect” and the “percent time spent in the target quadrant across three probe trials” value (normal adult mice; P1, P2, P3) was “reduced this time during subsequent P2 and P3”.
“EDQQVHFTPTEG (neurotrophic and/or neurogenic peptide) [Peptide 9]” was tested, and the “cell proliferation in the SGZ” value ([3]; 0.5 nmoles/animal) was “increased cell proliferation”, the “proliferation of dentate gyrus progenitor cells” value [3, 6] was “statistically significant increase” and the “differentiation of dentate gyrus progenitors into DCX (doublecortin) expressing cells” value (“differentiation” for short) [4] was “did not have any effect”.
For “CHQGCGGLFEC [Peptide 10, CNTF loop peptide, used as control]”, the “proliferation of dentate gyrus progenitor cells” value [3, 6] was “no effect” and the “differentiation” value [4] was “did not have any effect”.
For “IPRNEADGMPINV (neurotrophic and/or neurogenic peptide) [Peptide 5]”, the “cell proliferation in the SGZ (subgranular zone)” value [3, 7] was “increased cell proliferation”, the “cell proliferation in the oGCL (outer portion of the granule cell layer)” value [3, 7] was “increased cell proliferation” and the “proliferation of dentate gyrus progenitor cells compared with Peptide 9” value [3, 6] was “more proliferation than Peptide 9”. For the same substance, the “proliferation of dentate gyrus progenitor cells” value [3, 6] was “statistically significant increase” and the “differentiation” value [4] was “did not have any effect”.
